Experimental data reported in article PMC7115410 (European Journal of Medicinal Chemistry, 2018).
Read-outs that look alike come from different tables or passages of the source.

Assays:
[1] = test system: cleaved caspase 3, cleaved PARP 1, Bax, Bcl2; conditions: FOLFOX-HCT116 cells, different concentrations, 24 h
γH2AX = conditions: HCT-116 cells, 7b (5, 10 and 20 μM), 24 h
[2] = test system: cleaved caspase 3, cleaved PARP 1, Bax, Bcl2; conditions: FOLFOX-HT29 cells, different concentrations, 24 h
Chk1 phosphorylation [3] = conditions: FOLFOX-HT29 cells, different concentrations, 24 h
Chk1 phosphorylation [4] = conditions: HCT116 cells
HCT116 cells = conditions: 25 μM 5-FU alone
Chk1 = Chk1 (Homo sapiens, UniProt O14757); conditions: in vitro Chk1 kinase assay, purified Chk1 protein
Chain of Chk1 (O14757 whole entry): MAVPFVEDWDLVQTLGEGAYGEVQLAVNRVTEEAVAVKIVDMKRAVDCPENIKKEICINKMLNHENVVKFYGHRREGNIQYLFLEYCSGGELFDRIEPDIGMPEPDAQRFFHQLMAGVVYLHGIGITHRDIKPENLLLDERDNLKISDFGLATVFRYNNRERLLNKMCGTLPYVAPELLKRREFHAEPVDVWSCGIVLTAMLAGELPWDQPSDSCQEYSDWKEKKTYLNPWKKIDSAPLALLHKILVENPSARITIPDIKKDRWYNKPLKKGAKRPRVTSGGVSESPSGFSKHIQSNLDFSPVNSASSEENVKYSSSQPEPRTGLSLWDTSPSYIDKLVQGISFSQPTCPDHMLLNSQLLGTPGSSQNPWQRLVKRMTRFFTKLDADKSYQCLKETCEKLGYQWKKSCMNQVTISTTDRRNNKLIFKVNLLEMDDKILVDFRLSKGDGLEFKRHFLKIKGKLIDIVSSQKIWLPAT

Molecule	Levels of cleaved caspase 3 and PARP1 [1]	Levels of cleaved caspase 3 and PARP1 [2]	Chk1(S345P) phosphorylation (Chk1 phosphorylation [3])	other results
1-(3-Phenyl-allyl)-3,5,7-triaza-1-azonia-tricyclo[3.3.1.1^3,7]decane; chloride [Compound 7b]	increased levels	increased levels	increase	γH2AX-foci, compound alone (γH2AX): increased γH2AX-foci; HU-induced phosphorylation of Chk1(S317P), Chk1(S345P) and Chk1(S296P) (Chk1 phosphorylation [4]; 1 mM HU for 24 h followed by 20 μM 7b for additional 8 h): reduced after combination treatment
O=c1[nH]cc(F)c(=O)[nH]1 [Compound 5-FU, 5-fluorouracil]				Cell cycle profile (HCT116 cells): S phase arrest
ClC/C=C/C[N+]12CN3CN(CN(C3)C1)C2.[Cl-] [Compound 7a, 1-(4-Chloro-but-2-enyl)-3,5,7-triaza-1-azonia-tricyclo[3.3.1.1^3,7]decane; chloride]	increased levels	increased levels	increase	Inhibition of Chk1 activity in a reconstituted purified system (Chk1): do not inhibit
NC(=O)NO [HU, hydroxyurea, reference compound]				Phosphorylation of Chk1(S317P), Chk1(S345P) and Chk1(S296P) (Chk1 phosphorylation [4]; 1 mM HU alone): high level phosphorylation
